# What was measured:
# K-562 cells = experiment: Cell growth inhibition assay (CellTiter-Glo), K-562; assay type: cell-based, human; details: Homo sapiens, K562, read-out: K-562 TGI
# Procedure: (§1) Cell Growth Inhibition Assay
# (§2) The human leukemia cell lines MV-4-11, THP-1 and K-562 were employed to characterize the effect of BET inhibitors on cellular proliferation and viability. Cells were obtained from the American Type Culture Collection (ATCC) and cultured at 37° C. in a humidified 5% CO2 incubator in the following media: MV-4-11: DMEM high glucose (Animed #1-26F01-I), 10% FCS (Animed #2-01F26-I), 4 mM L-Glutamine (Animed #5-10K50), 1 mM Sodium Pyruvate (Animed # G03625P), 1× Penicillin-Streptomycin (Animed # F12478P); K-562: Iscove's MEM (Animed #1-28F16-I), 10% FCS (Animed #2-01F26-I), 4 mM L-Glutamine (Animed #5-10K50), 1× Penicillin-Streptomycin (Animed # F12478P); THP-1: RPMI-1640 (Animed #1-41F01-I), 10% FCS (Animed #2-01F26-I), 2 mM L-Glutamine (Animed #5-10K50), 10 mM HEPES (Animed #5-31F100), 1 mM Sodium Pyruvate (Animed # G03625P), 1× Penicillin-Streptomycin (Animed # F12478P). The AML lines MV-4-11 and THP-1 are very sensitive to BET inhibitors and show massive cell death upon BET inhibition (Zuber et al., Nature, 478 (2011), 524-8). Compound-mediated suppression of cell proliferation/viability was assessed by quantification of cellular ATP levels using the CellTiter-Glo (CTG) reagent (Promega). Briefly, cells were seeded in 20 μl fresh medium into 384-well plates, followed by addition of 5 μL medium containing compound dilutions at 5-fold their final intended concentration. Dose-response effects were assessed by 3-fold serial dilutions of the test compound, starting at 10 μM. Following incubation of the cells for days at 37° C. and 5% CO2, the effect of inhibitors on cell viability was quantified following addition of 20 μl CTG and luminescence quantification (integration time: 100 ms) as per vendor manual, using a correspondingly equipped Tecan M200 multi-mode platereader (TECAN, Switzerland). For data analysis, the assay background value determined in wells containing medium, but no cells, was subtracted from all data points. To enable differentiation of cytotoxic from cytostatic compounds, the number of viable cells is assessed relative to that observed at the time of compound addition using a separate cell plate (day 0). The effect of a particular test compound concentration on cell proliferation/viability is expressed as percentage of the background- and day 0-corrected luminescence reading obtained for cells treated with vehicle only (DMSO, 0.1% final concentration), which is set as 100%, whereas that luminescence reading for wells containing medium is set as −100%. Compound concentrations leading to half-maximal (IC50) and total growth inhibition (TGI) were determined using standard four parameter curve fitting.
# His-Brd2(60-472) = His-Brd2(60-472) (Homo sapiens (Human), UniProt P25440); experiment: TR-FRET in-vitro binding assay for BRD2; details: biochemical
# Summary of the method: (§3)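 His-tagged BRD2(60-472), BRD3(20-477) or BRD4(44-477), 45 nM in dispensing solution, with 60 nM tetra-acetylated histone H4 peptide (AcK5/8/12/16) in dispensing solution; HEPES pH 7.5, 50 mM NaCl, 0.1% BSA, 30 °C, 35 min. Eu-anti-His6 antibody plus streptavidin-APC added for TR-FRET read-out; 8-point compound dilutions.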
# THP-1 cells = experiment: Cell growth inhibition assay (CellTiter-Glo), THP-1; assay type: cell-based; details: Homo sapiens, read-out: THP-1 TGI
# Procedure: as §1, §2
# His-Brd4(44-477) = His-Brd4(44-477) (Homo sapiens (Human), UniProt O60885); experiment: TR-FRET in-vitro binding assay for BRD4; details: biochemical
# Summary of the method: as §3
# MV-4-11 cells = experiment: Cell growth inhibition assay (CellTiter-Glo), MV-4-11; assay type: cell-based; details: Homo sapiens, MV4-11, read-out: MV-4-11 TGI
# Procedure: as §1, §2
# His-Brd3(20-477) = His-Brd3(20-477) (Homo sapiens (Human), UniProt Q15059); experiment: TR-FRET in-vitro binding assay for BRD3; details: biochemical
# Summary of the method: as §3
# [1] = target: His-CREBBP (1081-1197) bromodomain (Homo sapiens (Human), UniProt Q92793); experiment: AlphaScreen in-vitro binding assay for CREBBP; details: biochemical
# Summary of the method: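 Ni-chelate acceptor and streptavidin donor beads (45 µg/mL each, in 50 mM HEPES pH 7.5, 150 mM NaCl, 0.02% BSA) were then added for 60 min at room temperature. IC50 came from 8-point non-linear regression.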
# His-Brd2(60-472), sequence (P25440 60-472): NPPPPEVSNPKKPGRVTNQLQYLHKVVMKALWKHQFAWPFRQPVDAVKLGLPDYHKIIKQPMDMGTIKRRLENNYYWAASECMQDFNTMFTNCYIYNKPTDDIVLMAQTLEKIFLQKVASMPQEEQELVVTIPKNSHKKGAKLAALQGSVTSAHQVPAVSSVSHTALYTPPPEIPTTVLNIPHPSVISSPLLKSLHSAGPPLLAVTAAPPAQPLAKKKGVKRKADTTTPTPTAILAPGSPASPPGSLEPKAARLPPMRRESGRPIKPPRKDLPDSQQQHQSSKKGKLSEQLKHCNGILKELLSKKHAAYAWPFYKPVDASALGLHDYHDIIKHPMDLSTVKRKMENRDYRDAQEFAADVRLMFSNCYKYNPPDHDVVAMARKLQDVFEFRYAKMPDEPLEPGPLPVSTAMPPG
# His-Brd3(20-477), sequence (Q15059 20-477): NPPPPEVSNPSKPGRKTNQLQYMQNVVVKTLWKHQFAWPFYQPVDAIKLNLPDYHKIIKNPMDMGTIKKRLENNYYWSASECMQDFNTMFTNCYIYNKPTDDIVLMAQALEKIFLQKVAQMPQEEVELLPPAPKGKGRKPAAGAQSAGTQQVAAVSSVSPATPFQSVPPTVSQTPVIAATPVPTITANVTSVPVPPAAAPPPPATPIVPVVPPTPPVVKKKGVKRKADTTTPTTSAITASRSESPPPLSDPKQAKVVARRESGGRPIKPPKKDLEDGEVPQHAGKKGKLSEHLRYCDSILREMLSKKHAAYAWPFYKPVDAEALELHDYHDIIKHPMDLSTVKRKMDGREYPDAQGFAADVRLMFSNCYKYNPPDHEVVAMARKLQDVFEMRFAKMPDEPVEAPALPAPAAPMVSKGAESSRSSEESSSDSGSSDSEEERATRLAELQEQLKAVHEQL
# His-CREBBP (1081-1197) bromodomain, sequence (Q92793 1081-1197): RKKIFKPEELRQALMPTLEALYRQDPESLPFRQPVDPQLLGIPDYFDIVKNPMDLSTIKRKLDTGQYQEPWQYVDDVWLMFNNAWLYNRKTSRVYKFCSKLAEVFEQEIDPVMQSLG
Structure (SMILES),IC50 (His-Brd2(60-472)) [nM],IC50 (His-Brd4(44-477)) [nM],IC50 (His-Brd3(20-477)) [nM],IC50 [1] [nM],IC (total growth inhibition) (K-562 cells) [µM],IC (total growth inhibition) (THP-1 cells) [µM],IC (total growth inhibition) (MV-4-11 cells) [µM]
"COc1ncc(-n2nc(C)c3c2C(=O)N(c2cc(Cl)c(=O)n(C)c2)C3c2ccc(Cl)cc2)c(OC)n1 (stereo not shown) [Example 53, 5-(5-chloro-1-methyl-6-oxo-1,6-dihydropyridin-3-yl)-4-(4-chlorophenyl)-1-(2,4-dimethoxypyrimidin-5-yl)-3-methyl-4,5-dihydropyrrolo[3,4-c]pyrazol-6(1H)-one]",98,130,120,,> 10,0.685,0.372
"COc1ncc(-n2nc3c(c2C(C)C)[C@H](c2ccc(Cl)cc2)N(c2cc(C)c4onc(C)c4c2)C3=O)c(OC)n1 [Example 61, (S)-4-(4-chlorophenyl)-2-(2,4-dimethoxypyrimidin-5-yl)-5-(3,7-dimethylbenzo[d]isoxazol-5-yl)-3-isopropyl-4,5-dihydropyrrolo[3,4-c]pyrazol-6(2H)-one]",,> 37000,> 37000,> 37000,> 10,> 10,1.09
"Cc1nn(C2CC2)c2c1C(c1ccc(Cl)cc1)N(c1cc(C)c3nnc(C)n3c1)C2=O (stereo not shown) [Example 92, 4-(4-chlorophenyl)-1-cyclopropyl-5-(3,8-dimethyl-[1,2,4]triazolo[4,3-a]pyridin-6-yl)-3-methyl-4,5-dihydropyrrolo[3,4-c]pyrazol-6(1H)-one]",,,27,14900,> 10,0.0395,0.0175
"COCc1nn(C2CC2)c2c1[C@@H](c1ccc(Cl)cc1)N(c1cc(C)c3nnc(C)n3c1)C2=O [Example 163, (R)-4-(4-chlorophenol)-1-cyclopropyl-5-(3,8-dimethyl-[1,2,4]triazolo[4,3-a]pyridin-6-yl)-3-(methoxymethyl)-4,5-dihydropyrrolo[3,4-c]pyrazol-6(1H)-one]",,< 11,,11000,> 10,0.0461,0.022
"COc1ccccc1-n1nc(C)c2c1C(=O)N(c1cc(C)c3nnc(C)n3c1)C2c1ccc(F)cc1F (stereo not shown) [Example 177, 4-(2,4-difluorophenyl)-5-(3,8-dimethyl-[1,2,4]triazolo[4,3-a]pyridin-6-yl)-1-(2-methoxyphenyl)-3-methyl-4,5-dihydropyrrolo[3,4-c]pyrazol-6(1H)-one]",,16,30,11000,> 10,0.153,0.114
"Cc1n[nH]c2c1C(c1ccc(Cl)cc1F)N(c1cc(C)c3nnc(C)n3c1)C2=O (stereo not shown) [Example 183, 4-(4-chloro-2-fluorophenyl)-5-(3,8-dimethyl-[1,2,4]triazolo[4,3-a]pyridin-6-yl)-3-methyl-4,5-dihydropyrrolo[3,4-c]pyrazol-6(2H)-one]",,82,75,> 24000,> 10,0.314,0.126
"COc1ccccc1-n1nc(C)c2c1C(=O)N(c1cc(C)c3nnc(C)n3c1)C2c1ccc(Cl)cc1F (stereo not shown) [Example 187, 4-(4-chloro-2-fluorophenyl)-5-(3,8-dimethyl-[1,2,4]triazolo[4,3-a]pyridin-6-yl)-1-(2-methoxyphenyl)-3-methyl-4,5-dihydropyrrolo[3,4-c]pyrazol-6(1H)-one]",,27,42,33000,> 10,0.223,0.209

# More lines, in order of falling IC50 [1], values ahead:
IC50 (His-Brd2(60-472)) [nM],IC50 (His-Brd4(44-477)) [nM],IC50 (His-Brd3(20-477)) [nM],IC50 [1] [nM],Structure (SMILES),IC (total growth inhibition) (K-562 cells) [µM],IC (total growth inhibition) (THP-1 cells) [µM],IC (total growth inhibition) (MV-4-11 cells) [µM]
,,17,8900,"Cc1nn(C2CC2)c2c1[C@@H](c1ccc(Cl)cc1)N(c1cc(C)c3nnc(C)n3c1)C2=O [Example 119, (R)-4-(4-chlorophenyl)-1-cyclopropyl-5-(3,8-dimethyl-[1,2,4]triazolo[4,3-a]pyridin-6-yl)-3-methyl-4,5-dihydropyrrolo[3,4-c]pyrazol-6(1H)-one]",> 10,0.0226,0.0116
140,150,160,7400,"Cn1cc(N2C(=O)c3c(cnn3C3CC3)C2c2ccc(Cl)cc2)cc(Cl)c1=O (stereo not shown) [Example 35, 5-(5-chloro-1-methyl-6-oxo-1,6-dihydropyridin-3-yl)-4-(4-chlorophenyl)-1-cyclopropyl-4,5-dihydropyrrolo[3,4-c]pyrazol-6(1H)-one]",> 10,0.427,0.23
,46,50,6600,"Cc1cc(N2C(=O)c3c(c(CF)nn3C3CC3)C2c2ccc(Cl)cc2)cn2c(C)nnc12 (stereo not shown) [Example 159, 4-(4-chlorophenyl)-1-cyclopropyl-5-(3,8-dimethyl-[1,2,4]triazolo[4,3-a]pyridin-6-yl)-3-(fluoromethyl)-4,5-dihydropyrrolo[3,4-c]pyrazol-6(1H)-one]",> 10,0.0855,0.0812
,,,5100,"Cc1cc(N2C(=O)c3c(c(C4CC4)nn3C)[C@H]2c2ccc(Cl)cc2)cn2c(C)nnc12 [Example 164, (R)-4-(4-chlorophenyl)-3-cyclopropyl-5-(3,8-dimethyl-[1,2,4]triazolo[4,3-a]pyridin-6-yl)-1-methyl-4,5-dihydropyrrolo[3,4-c]pyrazol-6(1H)-one]",> 10,0.0173,0.0118
,30,52,4400,"Cc1nn(C2CC2)c2c1C(c1ccc(Cl)cc1)N(c1cn(C)c(=O)c3[nH]ccc13)C2=O (stereo not shown) [Example 160, 4-(4-(4-chlorophenyl)-1-cyclopropyl-3-methyl-6-oxopyrrolo[3,4-c]pyrazol-5(1H,4H,6H)-yl)-6-methyl-1H-pyrrolo[2,3-c]pyridin-7(6H)-one]",> 10,0.107,0.102
310,95,180,3800,"Cc1[nH]nc2c1C(c1ccc(Cl)cc1)N(c1cc(C)c(=O)n(C)c1)C2=O (stereo not shown) [Example 27, 4-(4-chlorophenyl)-5-(1,5-dimethyl-6-oxo-1,6-dihydropyridin-3-yl)-3-methyl-4,5-dihydropyrrolo[3,4-c]pyrazol-6(2H)-one]",> 10,0.363,0.158
57,66,59,3600,"Cc1cc(N2C(=O)c3c(cnn3C(C)C)C2c2ccc(Cl)cc2)cn(C)c1=O (stereo not shown) [Example 36, 4-(4-chlorophenyl)-5-(1,5-dimethyl-6-oxo-1,6-dihydropyridin-3-yl)-1-isopropyl-4,5-dihydropyrrolo[3,4-c]pyrazol-6(1H)-one]",> 10,0.191,0.0927

# Source: patent US8975417B2, “Pyrazolopyrrolidine derivatives and their use in the treatment of disease” (Novartis AG, priority 2013, dated 2015)
